Experimental data: ChEMBL document CHEMBL4219117, “Chemical synthesis of an indomethacin ester prodrug and its metabolic activation by human carboxylesterase 1” (Bioorg Med Chem Lett, 2018)

Columns and labels:
[1] = molecular target: T1, Liver carboxylesterase 1 (Homo sapiens, UniProt P23141); test: Prodrug activation in human liver microsomes assessed as carboxylesterase 1-mediated indomethacin formation at 0.25 mM after 30 to 1440 mins by HPLC analysis; details: 250 µM
T1 sequence (P23141 whole entry): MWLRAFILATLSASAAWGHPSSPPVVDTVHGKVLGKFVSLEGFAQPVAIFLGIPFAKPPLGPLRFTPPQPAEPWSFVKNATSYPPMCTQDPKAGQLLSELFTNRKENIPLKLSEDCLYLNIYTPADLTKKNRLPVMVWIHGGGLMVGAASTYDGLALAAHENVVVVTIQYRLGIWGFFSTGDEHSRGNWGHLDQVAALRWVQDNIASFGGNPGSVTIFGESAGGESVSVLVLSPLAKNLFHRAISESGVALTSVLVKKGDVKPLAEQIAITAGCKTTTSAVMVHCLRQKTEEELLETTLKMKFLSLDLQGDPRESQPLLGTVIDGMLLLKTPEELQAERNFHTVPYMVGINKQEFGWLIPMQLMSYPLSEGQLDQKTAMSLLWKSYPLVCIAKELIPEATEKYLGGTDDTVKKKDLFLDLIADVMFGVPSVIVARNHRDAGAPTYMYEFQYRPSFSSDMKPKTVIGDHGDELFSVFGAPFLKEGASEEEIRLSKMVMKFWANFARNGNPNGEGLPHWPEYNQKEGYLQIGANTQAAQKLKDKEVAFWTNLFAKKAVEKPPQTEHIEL

[2] = molecular target: T1, Liver carboxylesterase 1; test: Prodrug activation in human intestine microsomes assessed as carboxylesterase 1-mediated indomethacin formation at 0.25 mM after 30 to 1440 mins by HPLC analysis; details: 250 µM
[3] = molecular target: T1, Liver carboxylesterase 1; test: Prodrug activation assessed as human carboxylesterase 1b-mediated indomethacin formation by measuring intrinsic clearance per mg protein at 0.003125 to 0.10 mM after 30 to 180 mins by HPLC based Michaelis-Menten plot analysis; details: isolated protein, 100 µM
[4] = substrate: CC[C@H](OC(=O)Cc1c(C)n(C(=O)c2ccc(Cl)cc2)c2ccc(OC)cc12)c1ccccc1; test: (§1) Prodrug activation assessed as human carboxylesterase 1b-mediated indomethacin formation at 0.003125 to 0.10 mM after 30 to 180 mins by HPLC based Michaelis-Menten plot analysis
[5] = substrate: COc1ccc2c(c1)c(CC(=O)OCC(C)(C)C)c(C)n2C(=O)c1ccc(Cl)cc1; test: as §1
[6] = substrate: CCCCSC(=O)Cc1c(C)n(C(=O)c2ccc(Cl)cc2)c2ccc(OC)cc12; test: as §1
[7] = substrate: CC[C@@H](C)OC(=O)Cc1c(C)n(C(=O)c2ccc(Cl)cc2)c2ccc(OC)cc12; test: as §1
[8] = substrate: CC[C@@H](OC(=O)Cc1c(C)n(C(=O)c2ccc(Cl)cc2)c2ccc(OC)cc12)c1ccccc1; test: as §1
[9] = substrate: COc1ccc2c(c1)c(CC(=O)OCC(C)C)c(C)n2C(=O)c1ccc(Cl)cc1; test: as §1
[10] = substrate: CC[C@H](C)OC(=O)Cc1c(C)n(C(=O)c2ccc(Cl)cc2)c2ccc(OC)cc12; test: as §1
[11] = substrate: CCCCOC(=O)Cc1c(C)n(C(=O)c2ccc(Cl)cc2)c2ccc(OC)cc12; test: as §1

Question: `COc1ccc2c(c1)c(CC(=O)OC(C)(C)C)c(C)n2C(=O)c1ccc(Cl)cc1` was tested. Which Drug metabolism [1] did it give?
Answer: Metabolite_Notdetected

Question: What about the Drug metabolism [2] of the same molecule?
Answer: Metabolite_Notdetected

Question: `CC[C@H](OC(=O)Cc1c(C)n(C(=O)c2ccc(Cl)cc2)c2ccc(OC)cc12)c1ccccc1` was tested. Which Drug metabolism [1] did it give?
Answer: Metabolite_Notdetected

Question: And the Drug metabolism [2]?
Answer: Metabolite_Notdetected

Question: And the clearance [3]?
Answer: 0.0003 mL/min/mg

Question: Which Drug metabolism [1] does the source give for `CCCCSC(=O)Cc1c(C)n(C(=O)c2ccc(Cl)cc2)c2ccc(OC)cc12` here?
Answer: Metabolite_Detected

Question: What about the Drug metabolism [2] of the same molecule?
Answer: Metabolite_Detected

Question: What about the clearance [3] of the same molecule?
Answer: 0.38 mL/min/mg

Question: Which results are given for `COc1ccc2c(c1)c(CC(=O)OCC(C)(C)C)c(C)n2C(=O)c1ccc(Cl)cc1`?
Answer: Drug metabolism [1]: Metabolite_Detected; Drug metabolism [2]: Metabolite_Notdetected; clearance [3]: 0.069 mL/min/mg

Question: Which results are given for `CC[C@@H](C)OC(=O)Cc1c(C)n(C(=O)c2ccc(Cl)cc2)c2ccc(OC)cc12`?
Answer: Drug metabolism [1]: Metabolite_Notdetected; Drug metabolism [2]: Metabolite_Notdetected; clearance [3]: 0.0048 mL/min/mg

Question: Which results are given for `CC[C@H](C)OC(=O)Cc1c(C)n(C(=O)c2ccc(Cl)cc2)c2ccc(OC)cc12`?
Answer: Drug metabolism [1]: Metabolite_Notdetected; Drug metabolism [2]: Metabolite_Notdetected; clearance [3]: 0.0021 mL/min/mg

Question: `CC[C@@H](OC(=O)Cc1c(C)n(C(=O)c2ccc(Cl)cc2)c2ccc(OC)cc12)c1ccccc1` was tested. Which Drug metabolism [1] did it give?
Answer: Metabolite_Notdetected

Question: What about the Drug metabolism [2] of the same molecule?
Answer: Metabolite_Notdetected

Question: What about the clearance [3] of the same molecule?
Answer: 0.007 mL/min/mg

Question: For `COc1ccc2c(c1)c(CC(=O)OCC(C)C)c(C)n2C(=O)c1ccc(Cl)cc1`, which Drug metabolism [1] is on record?
Answer: Metabolite_Detected

Question: And the Drug metabolism [2]?
Answer: Metabolite_Detected

Question: And the clearance [3]?
Answer: 0.089 mL/min/mg

Question: With `CCCCOC(=O)Cc1c(C)n(C(=O)c2ccc(Cl)cc2)c2ccc(OC)cc12` as the molecule, how does the Drug metabolism [1] read?
Answer: Metabolite_Detected

Question: And the Drug metabolism [2]?
Answer: Metabolite_Detected

Question: And the clearance [3]?
Answer: 0.34 mL/min/mg

B1: Liver carboxylesterase 1 (Homo sapiens) (protein)
chain: T1 sequence (P23141 whole entry)
Question: Which Km [4] does the source give for B1 here?
Answer: 6.5 µM

Question: What about the Vmax [4] of the same molecule?
Answer: 2e-06 µmol/min

Question: What about the Km [5] of the same molecule?
Answer: 4.6 µM

Question: And the Vmax [5]?
Answer: 0.000322 µmol/min

Question: And the Km [6]?
Answer: 2.1 µM

Question: What about the Vmax [6] of the same molecule?
Answer: 0.0008 µmol/min

Question: What about the Km [7] of the same molecule?
Answer: 10.1 µM

Question: And the Vmax [7]?
Answer: 4.9e-05 µmol/min

Question: What about the Km [8] of the same molecule?
Answer: 2.9 µM

Question: What about the Vmax [8] of the same molecule?
Answer: 2.1e-05 µmol/min

Question: What about the Km [9] of the same molecule?
Answer: 13.7 µM

Question: What about the Vmax [9] of the same molecule?
Answer: 0.00122 µmol/min

Question: And the Km [10]?
Answer: 48.5 µM

Question: What about the Vmax [10] of the same molecule?
Answer: 0.000103 µmol/min

Question: And the Km [11]?
Answer: 4.4 µM

Question: What about the Vmax [11] of the same molecule?
Answer: 0.00151 µmol/min
